Each compound was assayed against human GPR10 (Homo sapiens (Human), UniProt P49683) (assay: Inhibitory activity on binding of [3H]-PrRP to GPR10 (HEK 293 cell membrane fraction)). Conditions: [3H]-PrRP 1 nM, human GPR10-expressing HEK 293 cell membrane fraction; Ki from IC50 by Cheng-Prussoff formula.
Procedure: Inhibitory Activity on Binding of [^3H]-PrRP to GPR10
Human GPR10 receptor expressing human embryonic kidney cells, HEK 293 cells, were cultured in Dulbecco's Modified Eagle's medium supplemented with 10% fetal bovine serum and 1% penicilline-streptmycin at 37° C., in 5% carbon dioxide gas conditions. The medium was removed and the cells were recovered in a phosphate buffer to prepare a cell suspension. The cell suspension was homogenated on ice by an ultrasonic cell homogenizer (Microson™ type XL200) and centrifuged at 40,000 g for 10 minutes at 4° C. After the supernatant was discarded, Buffer A (20 mM HEPES, 10 mM EDTA, 1 μl/ml protease inhibiting cocktail, pH 7.4) was added to the pellet. The pellet was suspended by the ultrasonic cell homogenizer, then the suspension was centrifuged at 40,000 g, for 10 minutes at 4° C. After this operation was repeated once again, the supernatant was discarded, Buffer B (20 mM HEPES, 0.1 mM EDTA, pH 7.4) was added to the pellet, and the pellet was suspended by the ultrasonic homogenizer. This was stored at a freezer of −80° C. as a cell membrane fraction until use in a binding test.
To each well of a 96-well plate, 150 μl of assay buffer (20 mM HEPES, 10 mM EDTA, 1 μl/ml protease inhibiting agent cocktail, pH 7.4), 20 μl of cell membrane fraction, 10 μl of test compound and [^3H]-PrRP (final concentration 1 nM) were added and incubated at room temperature for 90 minutes. After completion of the reaction, using a cell harvester, the cell-membrane fraction sample product was filtered under aspiration by a glass fiber filter plate (Unifilter; GF/B) previously treated with 0.5% polyethylene imine. The filter was washed with a 50 mM Tris hydrochloric acid buffer (pH 7.4) three times. After the filter was dried in a dryer (50° C.) for about 3 hours, 40 μl of liquid scintillation cocktail (MicroScint-O) was added to each well and radio activity was measured by a scintillation counter (Packard Topcount). The radio activity in the presence of an excessive amount of non-labeled PrRP (final concentration: 100 nM) was regarded as non-specific binding.
The binding inhibition rate was calculated based on calculating formula: 100−(radio activity when a compound is added−radio activity of non-specific binding)÷(radio activity when a solvent is added−radio activity of non-specific binding)×100.
An IC50 value was calculated based on the concentration dependent reaction using a non-linear analysis program and a Ki value was calculated using Cheng-Prussoff formula.

human GPR10, sequence (P49683 whole entry): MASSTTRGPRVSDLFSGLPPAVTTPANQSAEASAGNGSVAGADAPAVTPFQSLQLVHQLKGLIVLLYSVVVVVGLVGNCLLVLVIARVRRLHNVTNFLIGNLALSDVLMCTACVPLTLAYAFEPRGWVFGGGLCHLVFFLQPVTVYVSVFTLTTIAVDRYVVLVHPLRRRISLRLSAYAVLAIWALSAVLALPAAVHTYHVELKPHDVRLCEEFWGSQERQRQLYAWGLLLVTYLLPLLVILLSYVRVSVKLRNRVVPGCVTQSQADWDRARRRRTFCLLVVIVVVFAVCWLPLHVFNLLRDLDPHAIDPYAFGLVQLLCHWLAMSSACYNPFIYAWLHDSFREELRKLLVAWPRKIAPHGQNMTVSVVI

In order of rising Ki:
1. C=Cc1ccc(C(=O)N2CCc3nc(N[C@@H](C)c4ccc(C(F)(F)F)cc4)n(OC)c(=O)c3C2)cc1 [Example 2456, 3-methoxy-2-[(S)-1-(4-trifluoromethylphenyl)ethylamino]-6-(4-vinylbenzoyl)-5,6,7,8-tetrahydro-3H-pyrido[4,3-d]pyrimidin-4-one]  6 nM
2. COn1c(N[C@@H](C)c2ccc(C(F)(F)F)cc2)nc2c(c1=O)CN(C(=O)COc1ccc(C#N)cc1)CC2 [Example 2468, 4-(2-{3-methoxy-4-oxo-2-[(S)-1-(4-trifluoromethylphenyl)ethylamino]-3,5,7,8-tetrahydro-4H-pyrido[4,3-d]pyrimidin-6-yl}-2-oxo-ethoxy)benzonitrile]  6 nM
3. COn1c(N[C@@H](C)c2ccc(C(F)(F)F)cc2)nc2c(c1=O)CN(C(=O)c1cc3cccnc3s1)CC2 [Example 2415, 3-methoxy-6-(thieno[2,3-b]pyridine-2-carbonyl)-2-[(S)-1-(4-trifluoromethylphenyl)ethylamino]-5,6,7,8-tetrahydro-3H-pyrido[4,3-d]pyrimidin-4-one]  9 nM
4. C#CCCn1c(N[C@@H](C)c2ccc(C(F)(F)F)cc2)nc2c(c1=O)CN(C(=O)c1ccc(-n3ccnc3)cc1)CC2 [Example 2434, 3-(3-butynyl)-6-(4-imidazol-1-ylbenzoyl)-2-[(S)-1-(4-trifluoromethylphenyl)ethylamino]-5,6,7,8-tetrahydro-3H-pyrido[4,3-d]pyrimidin-4-one]  9 nM
5. COn1c(N[C@@H](C)c2ccc(C(F)(F)F)cc2)nc2c(c1=O)CN(C(=O)c1cc3occc3n1C)CC2 [Example 2465, 3-methoxy-6-(4-methyl-4H-furo[3,2-b]pyrrole-5-carbonyl)-2-[(S)-1-(4-trifluoromethylphenyl)ethylamino]-5,6,7,8-tetrahydro-3H-pyrido[4,3-d]pyrimidin-4-one]  10 nM
6. COn1c(N[C@@H](C)c2ccc(C(F)(F)F)cc2)nc2c(c1=O)CN(C(=O)c1ccc3c(c1)OCCO3)CC2 [Example 2459, 6-(2,3-dihydrobenzo[1,4]dioxine-6-carbonyl)-3-methoxy-2-[(S)-1-(4-trifluoromethylphenyl)ethylamino]-5,6,7,8-tetrahydro-3H-pyrido[4,3-d]pyrimidin-4-one]  10 nM
7. COc1ccc2oc(C(=O)N3CCc4nc(N[C@@H](C)c5ccc(C(F)(F)F)cc5)n(OC)c(=O)c4C3)cc2c1 [Example 2460, 3-methoxy-6-(5-methoxybenzofuran-2-carbonyl)-2-[(S)-1-(4-trifluoromethylphenyl)ethylamino]-5,6,7,8-tetrahydro-3H-pyrido[4,3-d]pyrimidin-4-one]  14 nM
8. COn1c(N[C@@H](C)c2ccc(C(F)(F)F)cc2)nc2c(c1=O)CN(C(=O)c1cc3ccccc3s1)CC2 [Example 2474, 6-(benzo[b]thiophene-2-carbonyl)-3-methoxy-2-[(S)-1-(4-trifluoromethylphenyl)ethylamino]-5,6,7,8-tetrahydro-3H-pyrido[4,3-d]pyrimidin-4-one]  15 nM
9. COn1c(N[C@@H](C)c2ccc(C(F)(F)F)cc2)nc2c(c1=O)CN(C(=O)c1cc(-c3cccs3)n(C)n1)CC2 [Example 2464, 3-methoxy-6-(1-methyl-5-thiophen-2-yl-1H-pyrazole-3-carbonyl)-2-[(S)-1-(4-trifluoromethylphenyl)ethylamino]-5,6,7,8-tetrahydro-3H-pyrido[4,3-d]pyrimidin-4-one]  20 nM
10. CC#CCn1c(N[C@@H](C)c2ccc(C(F)(F)F)cc2)nc2c(c1=O)CN(C(=O)c1ccc(OC)cc1)CC2 [Example 2448, 3-(2-butynyl)-6-(4-methoxybenzoyl)-2-[(S)-1-(4-trifluoromethylphenyl)ethylamino]-5,6,7,8-tetrahydro-3H-pyrido[4,3-d]pyrimidin-4-one]  23 nM
11. COn1c(N[C@H](c2ccc(Cl)cc2)C(C)C)nc2c(c1=O)CN(C(=O)c1ccc3c(c1)CCC(=O)N3C)CC2 [Example 2487, 2-[(S)-1-(4-chlorophenyl)-2-methylpropylamino]-3-methoxy-6-(1-methyl-2-oxo-1,2,3,4-tetrahydro-quinoline-6-carbonyl)-5,6,7,8-tetrahydro-3H-pyrido[4,3-d]pyrimidin-4-one]  24 nM
12. C#CCCn1c(N[C@@H](C)c2ccc(C(F)(F)F)cc2)nc2c(c1=O)CN(C(=O)c1ccc(-c3cnco3)cc1)CC2 [Example 2438, 3-(3-butynyl)-6-(4-oxazol-5-ylbenzoyl)-2-[(S)-1-(4-trifluoromethylphenyl)ethylamino]-5,6,7,8-tetrahydro-3H-pyrido[4,3-d]pyrimidin-4-one]  26 nM
13. CC(C)COn1c(N[C@@H](C)c2ccc(C(F)(F)F)cc2)nc2c(c1=O)CN(C(=O)c1ccc(C#N)cc1F)CC2 [Example 2416, 3-fluoro-4-{3-isobutoxy-4-oxo-2-[(S)-1-(4-trifluoromethylphenyl)ethylamino]-3,5,7,8-tetrahydro-4H-pyrido[4,3-d]pyrimidine-6-carbonyl}benzonitrile]  33 nM
14. COn1c(N2CCCC2c2ccc(C(F)(F)F)cc2)nc2c(c1=O)CN(C(=O)c1ccc(Cl)cc1)CC2 (centres unmarked) [Example 2475, 6-(4-chlorobenzoyl)-3-methoxy-2-[2-(4-trifluoromethylphenyl)pyrrolidin-1-yl]-5,6,7,8-tetrahydro-3H-pyrido[4,3-d]pyrimidin-4-one]  34 nM
15. CC#CCn1c(N[C@@H](C)c2ccc(C(F)(F)F)cc2)nc2c(c1=O)CN(C(=O)c1ccc3c(c1)OCO3)CC2 [Example 2444, 6-(benzo[1,3]dioxole-5-carbonyl)-3-(2-butynyl)-2-[(S)-1-(4-trifluoromethylphenyl)ethylamino]-5,6,7,8-tetrahydro-3H-pyrido[4,3-d]pyrimidin-4-one]  42 nM
16. COn1c(N[C@H](c2ccc(Cl)cc2)C(C)C)nc2c(c1=O)CN(C(=O)c1ccc3c(c1)OCCO3)CC2 [Example 2479, 2-[(S)-1-(4-chlorophenyl)-2-methylpropylamino]-6-(2,3-dihydrobenzo[1,4]dioxine-6-carbonyl)-3-methoxy-5,6,7,8-tetrahydro-3H-pyrido[4,3-d]pyrimidin-4-one]  42 nM
17. COn1c(N[C@@H](C)c2ccc(C(F)(F)F)cc2)nc2c(c1=O)CN(C(=O)c1ccc(Cl)o1)CC2 [Example 2454, 6-(5-chloro-furan-2-carbonyl)-3-methoxy-2-[(S)-1-(4-trifluoromethylphenyl)ethylamino]-5,6,7,8-tetrahydro-3H-pyrido[4,3-d]pyrimidin-4-one]  48 nM
18. COn1c(N[C@@H](C)C2CCCCC2)nc2c(c1=O)CN(C(=O)c1ccc(C#N)cc1F)CC2 [Example 2469, 4-[2-((S)-1-cyclohexylethylamino)-3-methoxy-4-oxo-3,5,7,8-tetrahydro-4H-pyrido[4,3-d]pyrimidine-6-carbonyl]-3-fluorobenzonitrile]  56 nM
19. COn1c(N[C@@H](C)C2CCCCC2)nc2c(c1=O)CN(C(=O)c1ccc(Cl)cc1)CC2 [Example 2470, 6-(4-chlorobenzoyl)-2-((S)-1-cyclohexyl-ethylamino)-3-methoxy-5,6,7,8-tetrahydro-3H-pyrido[4,3-d]pyrimidin-4-one]  108 nM
20. COn1c(NC(CCC(F)(F)F)c2ccc(Cl)cc2)nc2c(c1=O)CN(C(=O)c1ccc(Cl)cc1)CC2 (centres unmarked) [Example 2450, 6-(4-chlorobenzoyl)-2-[1-(4-chlorophenyl)-4,4,4-trifluorobutylamino]-3-methoxy-5,6,7,8-tetrahydro-3H-pyrido[4,3-d]pyrimidin-4-one]  121 nM
21. C#CCCn1c(N[C@@H](C)c2ccc(C(F)(F)F)cc2)nc2c(c1=O)CN(C(=O)c1ccc(C(=O)N(C)C)cc1)CC2 [Example 2494, 4-{3-(3-butynyl)-4-oxo-2-[(S)-1-(4-trifluoromethylphenyl)ethylamino]-3,5,7,8-tetrahydro-4H-pyrido[4,3-d]pyrimidine-6-carbonyl}-N,N-dimethylbenzamide]  201 nM
22. CCOc1ccc(CNc2nc3c(c(=O)n2OC)CN(C(=O)c2ccc(C#N)cc2F)CC3)cc1 [Example 2490, 4-[2-(4-ethoxybenzylamino)-3-methoxy-4-oxo-3,5,7,8-tetrahydro-4H-pyrido[4,3-d]pyrimidine-6-carbonyl]-3-fluorobenzonitrile]  237 nM
23. C#CCCn1c(N[C@@H](C)c2ccc(C(F)(F)F)cc2)nc2c(c1=O)CN(C(=O)c1nc3ccccc3[nH]1)CC2 [Example 2458, 6-(1H-benzoimidazole-2-carbonyl)-3-(3-butynyl)-2-[(S)-1-(4-trifluoromethylphenyl)ethylamino]-5,6,7,8-tetrahydro-3H-pyrido[4,3-d]pyrimidin-4-one]  245 nM
